Positions of bridges follow the written chain, without caps; N, C: chain ends. Chains are numbered I, II in the order given.
Columns and labels:
CD4 and CD8 T cells = assay: In vitro challenge of T cells from mice injected with sv6D-MOG; format: cell-based, C57BL/6 mice; details: mice injected weekly x2 with 0.1 nmol/g; 72 h incubation
Experimental: FIGS. 11A-11B. Activation of T cells by sv6D-antigen conjugate. IFN-γ (FIG. 11A) and IL-2 (FIG. 11B) production upon in vitro challenge of T cells after weekly injections of sv6D or sv6D-MOG (MOG=myelin oligodendrocyte glycoprotein35-55) into C57BL/6 mice. One week after the second injection, spleen and right inguinal lymph node tissue were combined and homogenized to allow isolation of CD4 and CD8 T cells, which were mixed with non-T cell antigen presenting cells, and incubated 72 h with PBS, sv6D or sv6D-MOG. PMA (phorbol 12-myristate 13-acetate) and I (ionomycin) were added as positive controls. Activation of CD8^+ T cells indicated cross-presentation of the antigen to the cytosol of dendritic cells, mediated by sv6D.
Whereas sv6D is not antigenic in the mouse (FIG. 10), it is important to determine whether the peptide gains access to the cytosol of DCs. To test whether sv6D could initiate a TH1 response and activate CD8^+ T cells, a fragment of the myelin oligodendrocyte glycoprotein (MOG35-55) was attached to the C-terminus of sv6D and injected into mice. One week after a second weekly injection of 0.1 nmol/g peptide, CD4^+ and CD8^+ T cells were challenged in vitro with the conjugate. […] A high level of IL-2 was also released by CD4^+ T cells (FIG. 11B). These observations are typical of a strong response to vaccination and stimulation of clonal T cell proliferation. […]

[1] = test system: ID8 ovarian cancer cell line; assay: Murine model of ovarian cancer, sv6D and anti-PD-1; format: in vivo, C57BL/6 mice
Experimental: FIGS. 9A-9B. Combination study of sv6D and anti-PD-1. (FIG. 9A) The design of the experiment and extension of survival of C57BL/6 female mice implanted with ovarian cancer cell line ID8 and treatments with anti-PD-1 and sv6D. Anti-PD-1 (rat anti-mouse, clone 29F.1A12) was administered intraperitoneally every other day, 200 μg protein per dose, between day 41 and 49 (white bars). sv6D was administered subcutaneously every other day at 0.1 nmol/g, starting on day 36, 51 or 87 (grey bars). […] (FIG. 9B) Kaplan-Meier survival curves of mice treated with anti-PD-1 and/or sv6D. […] For group 3, the Mantel-Cox log-rank test p=0.003 indicates the significance between treatment with the combination and antibody alone. Anti-PD-1, square; sv6D, dark triangle; anti-PD-1 followed by sv6D (Group 3 in FIG. 9A), light triangle; PBS, circle.
We tested whether sv6D would extend effectiveness of anti-PD-1. Five doses of anti-PD-1 (200 μg in PBS) were injected intraperitoneally on alternate days between days 41 and 49. sv6D was injected subcutaneously immediately after the treatment with anti-PD-1 and continued on alternate days to the end of the study (FIG. 9A, Group 3).

[2] = Serum cytokine array (L-308) in healthy mice; format: in vivo, Balb/c mice; details: svL4 s.c., 4 h, separate experiment
Experimental: Ratios of treated vs. untreated samples obtained in a separate experiment with healthy Balb/c mice are shown in the right-hand column of Table 2 for comparison. The most significant increase in the serum of healthy mice treated with the peptide was in the amount of soluble HVEM (Herpes virus entry mediator, also designated TNFRSF14), which was a prominent protein in serum and increased approximately 10-fold within 4 h after treatment. In the tumor-bearing mice, the level of soluble HVEM in treated animals was similar to that in treated healthy mice, but the level in untreated animals was higher than that in healthy control mice.

Substance	IFN-γ release by CD4+ and CD8+ T cells on in vitro challenge (CD4 and CD8 T cells)	Ascites formation ([1]; Group 5: sv6D from day 87 after anti-PD-1)	Survival ([1]; Group 6: hiatus of one week after a week of sv6D)	Survival ([1]; combination of anti-PD-1 with sv6D (Group 4))	Survival ([1]; single agent: anti-PD-1 200 μg i.p. x5 (Group 1), sv6D 0.1 nmol/g s.c. alternate days (Group 7))	Accumulation of ascites ([1]; sv6D alone vs. anti-PD-1)	Ratio of level of IFN-γ in sera (treated vs. untreated) [2]	Ratio of level of IL-1α in sera (treated vs. untreated) [2]	Ratio of level of IL-2 in sera (treated vs. untreated) [2]	Ratio of level of IL-12p70 in sera (treated vs. untreated) [2]	Ratio of level of IL-17 in sera (treated vs. untreated) [2]	Ratio of level of IL-21 in sera (treated vs. untreated) [2]	Ratio of level of IL-23 in sera (treated vs. untreated) [2]	Ratio of level of IL-27 in sera (treated vs. untreated) [2]	Ratio of level of IL-28 in sera (treated vs. untreated) [2]	Ratio of level of IL-31 in sera (treated vs. untreated) [2]	Ratio of level of Lymphotoxin-α in sera (treated vs. untreated) [2]	Ratio of level of TNFα in sera (treated vs. untreated) [2]
I: H-NQHTPRGGGSKK-NH2 / II: H-NQHTPRGGGSK / III: H-NQHTPRGGGS / IV: H-NQHTPRGGGS (amide I:11-IV:C, I:12-II:C, II:11-III:C) [sv6D]	did not induce IFN-γ release	essentially complete suppression of ascites formation	survived only slightly longer than animals treated with PBS	maximal survival	maximal survival	inhibited accumulation of ascites to a greater extent than anti-PD-1	–	–	–	–	–	–	–	–	–	–	–	–
I: H-VQATQSNQHTPRGGGSKK-NH2 / II: H-VQATQSNQHTPRGGGSK / III: H-VQATQSNQHTPRGGGS / IV: H-VQATQSNQHTPRGGGS (amide I:17-IV:C, I:18-II:C, II:17-III:C) [svL4]	–	–	–	–	–	–	no change	0.86	no change	no change	no change	no change	no change	0.55	no change	no change	0.74	0.21
